The target of data set [1] is T1, His-tagged recombinant AGO2 (Homo sapiens, UniProt Q9UKV8). Put plainly: Surface plasmon resonance (Biacore T200) binding of peptides to AGO2. The settings on record: for kon: read-out: ka (association rate constant); for koff: read-out: kd (dissociation rate constant). On the procedure:
Surface Plasmon Resonance (SPR) was utilized using Biacore T200 (GE Healthcare) to study binding affinities between decoy peptides Pep#11 and Pep#26 peptides with recombinant His-tagged AGO2 protein. The recombinant His-AGO2 and MSI1 peptides were diluted in HBS-P buffer (10 mM HEPES, 150 mM NaCl and 0.005% T20, pH 7.4). To evaluate the binding affinity, recombinant His-AGO2 was immobilized on a CM5 sensor chip (GE Healthcare, BR100012) via amine coupling (~7000 RU) for 3600 s at a rate of 5 µL/mins, and flow rate for binding analysis was run at 30 µL/mins. After injection of each peptide, the surface was regenerated with an injection of 10 mM NaOH. All sensorgrams were double referenced by subtracting the surface effect from the control flow […] and the buffer effect form the blank buffer. The kinetic values ka, kd, and KD were obtained using Biacore T200 Evaluation Software (GE healthcare) assuming the Langmuir 1:1 binding model.

For another data set, the target named is T2, endogenous AGO2 (Homo sapiens, UniProt Q9UKV8).
T2 construct: endogenous in cells
Nature of the data set: Confocal immunofluorescence of 5′FAM-tagged peptides: cell entry and co-localization with AGO2. The class given is cell-based. The following applies: 10 µM 5′FAM-tagged peptide. The source says:
(§1) Other general procedures not detailed above including plasmid constructions, transfection, co-immunoprecipitation, RNA extraction, quantitative real-time PCR (qRT-PCR), gene expression analysis, Western blotting, immunofluorescence (IF) staining, and immunohistochemistry staining (IHC) were described previously.

The target of data set [2] is T1, His-tagged recombinant AGO2. Nature of the data set: PepSpot peptide tiling array incubated with His-tagged AGO2. The class given is binding. The settings on record: 15-mer peptides on nitrocellulose, 2 μg His-AGO2 overnight, HRP anti-6×His. How it is done:
To rapidly screen the putative binding hotspots along the C-terminus of MSI1, we mimicked the epitope screening method by dotting the synthetic short peptides on nitrocellulose membrane and incubated with purified AGO2 protein [49]. The C-terminus of MSI1 (200–362) was divided into 27 individual synthetic peptides with N-terminal amine attached on the nitrocellulose. Each peptide is 15 amino acids in length and has eight amino acids overlapping with the previous neighboring peptide (Table S1). The purchased PepSpot membrane (JPT peptide technologies, Berlin, Germany) was firstly rinsed in methanol for 5 min, followed by Tris buffer saline supplemented with 0.1% Tween-20 (TBS-T) washing thrice. The membrane was then blocked by Superblock T20 blocking buffer (Thermo Fisher Scientific Inc., Waltham, MA, USA) for 2 h and 2 μg His-tagged AGO2 recombinant protein was added for an overnight incubation. The membrane was washed thrice with TBS-T and incubated with horseradish peroxidase (HRP)-conjugated 6×His tag primary antibody (Genetex Inc., Hsinchu, Taiwan) for 4 h under 4 °C. Enhanced chemiluminescent reagent was used for further blotting.

The next data set has as its target T3, MSI1/AGO2 interaction (Homo sapiens, UniProt Q9UKV8).
T3 construct: endogenous in cells
Put plainly: Co-immunoprecipitation competition of MSI1/AGO2 complex in cells. The class given is cell-based. The following applies: cells treated with 10 µM peptide, hypoxic condition.
Excerpt: as §1

The target of data set [3] is T4, MSI1/AGO2 interaction (M-NGluc / A-CGluc) (Homo sapiens, UniProt Q9UKV8).
T4 construct: expressed in transfected cells; pcDNA 3.1 and pCMV backbones
Put plainly: Split Gaussia luciferase reconstitution assay of MSI1/AGO2 interaction. The class given is cell-based. The following applies: IVIS; for reconstituted luciferase luminescence versus non-treated or CP-treated cells: tat-conjugated peptides, cisplatin-induced stress (30 µM). The source says:
We applied a gaussia luciferase (Gluc) system to detect protein–protein interaction between MSI1 and AOG2. We split gaussia luciferase into two fragments: the 106 a.a. N-terminus (NGluc) and the 79 a.a. C-terminus (CGluc). After polymerase chain reaction (PCR) amplification, the NGluc and CGluc were subjected to construct fusion protein with MSI1 and AGO2, respectively, in the pcDNA 3.1 and pCMV backbone. Each fusion protein contains a flexible linker (GGGGS) 2 between the protein and polypeptides of split luciferase. We stably transfected both fusion protein expression plasmids in DBTRG-05MG GBM cell line and generated a stable cell line with Hygromycin B (Sigma Aldrich Co., St. Louis, MI, USA) and G418 sulfate (Merck Co., […], Germany). We established a normalizing standard by transducing multiple reporter genes into the generated stable cell line for stably expressing green fluorescent protein (GFP), firefly luciferase (FLuc), and herpes simplex virus type I thymidine kinase (HSV1-tk) using lentivirus as previously described. For in vitro MSI1/AGO2 interaction study in cells, cell lysates were prepared with mild reporter lysis buffer (Promega Co., Madison, WI, USA) with a frozen–thaw cycle. The supernatant was then collected after centrifugation and dispensed in a 96-well black flat bottom plate. Coelenterazine (Nanolight Technologies, Ltd., Pinetop, AZ, USA), the substrate of GLuc, was firstly dissolved in methanol and diluted in reporter assay buffer (15 mM potassium phosphate, 25 mM glycylglycine, 15 mM MgSO4, 4 mM EDTA). D-luciferin sodium salt (Promega Co., Madison, WI, USA) was dissolved in sterilized water and diluted in reporter assay buffer supplemented with 2mM ATP. The bioluminescent signals were acquired by Wallac 1420 Victor2 Microplate Reader (Perkin Elmer, Waltham, MA, USA) equipped with auto-dispenser to avoid rapid decay of Gluc.

For data set [4], the system named is DBTRG-05MG cells. Nature of the data set: Time-lapse cellular uptake of 5′FAM-labeled peptides. The class given is in vitro ADME, human. The settings on record: 5′FAM-labeled peptide, time-lapse confocal and fluorescence by ELISA reader, n = 3 per time point.
The test system of data set [5] is DBTRG-05MG cells. Put plainly: Degradation of 5′FAM-labeled peptides in cells. The class given is in vitro ADME, human. The settings on record: 5′FAM-labeled peptide, cells followed up to 6 h, fluorescence by ELISA reader, three independent experiments.
In the next data set the test system is DBTRG-05MG cell line. Nature of the data set: Concentration-dependent cellular uptake (half-uptake concentration EC50). The class given is in vitro ADME, human. The settings on record: Figure 6A,B legend, fluorescein labeled peptides, ELISA reader.
Data set [6] has as its system CCND1, CDK4, HELLS, NF2, TP53, p21 mRNA. Put plainly: qRT-PCR of downstream mRNA targets of the MSI1-AGO2 complex under hypoxia. The class given is cell-based, human. The following applies: peptide transfection in DBTRG-05MG cells, hypoxia versus normoxia. How it is done:
In vitro binding assay was carried out with N-terminal biotinylated synthetic peptides (Table S3) based on our peptide array screening. The synthesized peptides (Thermo Fisher Scientific Inc., Waltham, MA, USA) were dissolved in 10% DMSO by 1 mg/mL and subjected to incubation with an equal amount of AGO2 recombinant protein (2 μg each) in T20 blocking solution (Thermo Fisher Scientific Inc., Waltham, MA, USA). After 16 h incubation, the peptides were pulled down with immobilized streptavidin (Pierce 21115, Thermo Fisher Scientific Inc., Waltham, MA, USA). The precipitated peptide/protein complex was subjected to immunoblotting with 6×His primary antibody (GeneTex Inc., Hsinchu, Taiwan) hybridization and detection. Peptide transfection was carried out with Proteojuice (Millipore 71281, Merck Co., Darmstadt, Germany) following the manufacturer’s instruction. For the in vivo compatible cell-penetrating peptide (CPP)-modified peptides, we tested two different CPPs at the C-terminal ends, including TAT (48–60) from HIV [55, 56, 57].
as §1

Residues, ends and D or L forms follow the SMILES beside them. No end group written: not given here. *: point of attachment. 5FAM = O=C1OC2(c3ccc(O)cc3Oc3cc(O)ccc32)c2ccc(C(=O)*)cc21

T1 sequence (Q9UKV8 whole entry): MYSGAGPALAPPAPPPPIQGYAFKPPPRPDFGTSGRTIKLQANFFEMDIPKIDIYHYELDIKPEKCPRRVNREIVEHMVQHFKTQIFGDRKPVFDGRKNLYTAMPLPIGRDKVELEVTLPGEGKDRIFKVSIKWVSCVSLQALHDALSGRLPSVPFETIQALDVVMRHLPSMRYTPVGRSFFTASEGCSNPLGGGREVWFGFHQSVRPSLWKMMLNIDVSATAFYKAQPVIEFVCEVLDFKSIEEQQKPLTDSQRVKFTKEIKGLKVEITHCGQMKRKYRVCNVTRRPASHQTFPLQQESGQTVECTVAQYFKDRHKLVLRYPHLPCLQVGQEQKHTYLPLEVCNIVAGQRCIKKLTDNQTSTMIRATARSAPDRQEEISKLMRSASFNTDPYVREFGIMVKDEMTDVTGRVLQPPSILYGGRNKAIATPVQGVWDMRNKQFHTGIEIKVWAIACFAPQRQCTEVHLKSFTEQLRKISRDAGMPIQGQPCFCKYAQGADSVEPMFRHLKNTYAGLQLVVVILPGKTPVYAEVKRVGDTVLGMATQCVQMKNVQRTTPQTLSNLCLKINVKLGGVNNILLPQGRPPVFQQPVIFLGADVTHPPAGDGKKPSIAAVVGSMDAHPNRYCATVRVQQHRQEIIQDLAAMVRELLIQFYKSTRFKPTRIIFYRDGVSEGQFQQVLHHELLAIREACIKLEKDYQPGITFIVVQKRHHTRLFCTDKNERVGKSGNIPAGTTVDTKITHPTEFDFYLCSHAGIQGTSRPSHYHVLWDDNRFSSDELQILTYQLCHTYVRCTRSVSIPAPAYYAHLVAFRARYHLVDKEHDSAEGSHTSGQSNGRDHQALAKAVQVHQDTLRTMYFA
T4 sequence (Q9UKV8 whole entry): as above
T2 sequence (Q9UKV8 whole entry): as above
T3 sequence (Q9UKV8 whole entry): as above

For “GSHPWTMAPPPGSTPGRKKRRQRRRPPQ [CP, reference compound]”, in data set [1], the kon worked out at 42500 M⁻¹ s⁻¹ and the koff stood at 4.53 s⁻¹.
Regarding `CC[C@H](C)[C@H](NC(=O)[C@H](CC(C)C)NC(=O)[C@@H]1CCCN1C(=O)CNC(=O)CNC(=O)[C@H](CC(C)C)NC(=O)[C@H](CO)NC(=O)[C@H](Cc1c[nH]cn1)NC(=O)c1ccc2c(c1)C(=O)OC21c2ccc(O)cc2Oc2cc(O)ccc21)C(=O)N[C@@H](C)C(=O)N[C@H](C(=O)N[C@@H](C)C(=O)N[C@@H](Cc1ccccc1)C(=O)N[C@H](C(=O)N[C@@H](CC(N)=O)C(=O)NCC(=O)NCC(=O)N[C@@H](CCCNC(=N)N)C(=O)N[C@@H](CCCCN)C(=O)N[C@@H](CCCCN)C(=O)N[C@@H](CCCNC(=N)N)C(=O)N[C@@H](CCCNC(=N)N)C(=O)N[C@@H](CCC(N)=O)C(=O)N[C@@H](CCCNC(=N)N)C(=O)N[C@@H](CCCNC(=N)N)C(=O)N[C@@H](CCCNC(=N)N)C(=O)N1CCC[C@H]1C(=O)N1CCC[C@H]1C(=O)N[C@@H](CCC(N)=O)C(=O)O)[C@@H](C)O)[C@@H](C)O` [5′FAM-Pep#26] (5FAM-HSLGGPLIATAFTNGGRKKRRQRRRPPQ-OH), the “entry into cells (confocal microscopy)” value at endogenous AGO2 is reported as “capable of entering the cells”.
With YQFPEFRVERTPLPSGRKKRRQRRRPPQ [Pep#11], in data set [1], the kon turned out to be 32600 M⁻¹ s⁻¹ and the koff stood at 0.0168 s⁻¹. Further, the “binding to AGO2 on the peptide array (immunoblot)” value in [2] is recorded as “strongest binding peptides”. Besides, the “interference with MSI1/AGO2 binding complex formation (Co-IP immunoblot)” value on MSI1/AGO2 interaction is “completely abolished”. In [3], the “reconstituted luciferase luminescence versus non-treated or CP-treated cells” value was “significantly lower”. Besides, in the data set on DBTRG-05MG cells [4], the “time of significant increases in cellular uptake” value is recorded as “within the first hour”. Moreover, the “time of significant degradation in the cells (change in 5′FAM fluorescence)” value with DBTRG-05MG cells [5] is “within the first half an hour”. Also, a half-maximal effect with DBTRG-05MG cell line (EC50) was put at 9.1 µM. Further, in data set [6], the “effect of hypoxia-induced MSI1/AGO2 complex on downstream mRNAs (CCND1, CDK4, HELLS, NF2, TP53, p21)” value is recorded as “reversed”.
For HSLGGPLIATAFTNGGRKKRRQRRRPPQ [Pep#26], in data set [1], the kon came to 3160 M⁻¹ s⁻¹ and the koff is 0.00213 s⁻¹. Besides, the “binding to AGO2 on the peptide array (immunoblot)” value in data set [2] is given as “strongest binding peptides”. Also, the “interference with MSI1/AGO2 binding complex formation (Co-IP immunoblot)” value at MSI1/AGO2 interaction is given as “completely abolished”. The “reconstituted luciferase luminescence versus non-treated or CP-treated cells” value in data set [3] is listed as “significantly lower”. The “time of significant degradation in the cells (change in 5′FAM fluorescence)” value in the data set on DBTRG-05MG cells [5] was “within the first half an hour”. Moreover, in the data set on DBTRG-05MG cell line, a half-maximal response (EC50) required 9 µM. Besides, the “effect of hypoxia-induced MSI1/AGO2 complex on downstream mRNAs (CCND1, CDK4, HELLS, NF2, TP53, p21)” value in data set [6] is given as “reversed”.
As to `CC(C)C[C@H](NC(=O)[C@@H]1CCCN1C(=O)[C@@H](NC(=O)[C@H](CCCNC(=N)N)NC(=O)[C@H](CCC(=O)O)NC(=O)[C@@H](NC(=O)[C@H](CCCNC(=N)N)NC(=O)[C@H](Cc1ccccc1)NC(=O)[C@H](CCC(=O)O)NC(=O)[C@@H]1CCCN1C(=O)[C@H](Cc1ccccc1)NC(=O)[C@H](CCC(N)=O)NC(=O)[C@H](Cc1ccc(O)cc1)NC(=O)c1ccc2c(c1)C(=O)OC21c2ccc(O)cc2Oc2cc(O)ccc21)C(C)C)[C@@H](C)O)C(=O)N1CCC[C@H]1C(=O)N[C@@H](CO)C(=O)NCC(=O)N[C@@H](CCCNC(=N)N)C(=O)N[C@@H](CCCCN)C(=O)N[C@@H](CCCCN)C(=O)N[C@@H](CCCNC(=N)N)C(=O)N[C@@H](CCCNC(=N)N)C(=O)N[C@@H](CCC(N)=O)C(=O)N[C@@H](CCCNC(=N)N)C(=O)N[C@@H](CCCNC(=N)N)C(=O)N[C@@H](CCCNC(=N)N)C(=O)N1CCC[C@H]1C(=O)N1CCC[C@H]1C(=O)N[C@@H](CCC(N)=O)C(=O)O` [5′FAM-Pep#11] (5FAM-YQFPEFRVERTPLPSGRKKRRQRRRPPQ-OH), the “entry into cells (confocal microscopy)” value on endogenous AGO2 was “capable of entering the cells”. In addition, at endogenous AGO2 (confocal microscopy), the “subcellular co-localization with AGO2” value is “co-localized with endogenous AGO2 in the cytosol”.
`N.N.[Cl][Pt][Cl]` [cisplatin, reference compound]: the “luciferase luminescence versus PBS-treated group” value in [3] (cells overexpressing M-NGluc and A-CGluc, 30 µM cisplatin) is reported as “significantly greater luminescence”.

By EC50 is commonly meant the concentration giving half of the maximal effect. Low values mean a more potent agent, high ones a less potent agent.

The values are drawn from PMC8833744, “Strategic Decoy Peptides Interfere with MSI1/AGO2 Interaction to Elicit Tumor Suppression Effects” (Cancers, 2022).
